Test results from paper PMC8120209, “Longitudinal evaluation of a novel BChE PET tracer as an early in vivo biomarker in the brain of a mouse model for Alzheimer disease” (Theranostics, 2021).

How the values were obtained:
adrenergic receptor α2A = target: T1, adrenergic receptor α2A (Homo sapiens, UniProt P08913); experiment: SafetyScreen44 panel (Eurofins), single concentration […]; conditions: read-out: % inhibition at 10 μM
T1 construct: gene ADRA2A

N muscle-type (h) = target: T2, N muscle-type (h) (Homo sapiens, UniProt P02708); experiment: biochemical; parameters: Eurofins SafetyScreen44 radioligand displacement, inhibition of control specific binding; conditions: read-out: % Inhibition of Control Specific Binding, Mean
T2 construct: gene CHRNA1

kappa (h) (KOP) = target: T3, kappa (h) (KOP) (Homo sapiens, UniProt P41145); experiment: biochemical; parameters: Eurofins SafetyScreen44 radioligand displacement, inhibition of control specific binding; conditions: read-out: % Inhibition of Control Specific Binding, Mean
T3 construct: gene OPRK1

D5(h) = target: T4, D5(h) (Homo sapiens, UniProt P21918); experiment: biochemical; parameters: Eurofins SafetyScreen44 radioligand displacement, inhibition of control specific binding; conditions: read-out: % Inhibition of Control Specific Binding, Mean
T4 construct: gene DRD5

GR (h) = target: T5, GR (h) (Homo sapiens, UniProt P04150); experiment: biochemical; parameters: Eurofins SafetyScreen44 radioligand displacement, inhibition of control specific binding; conditions: read-out: % Inhibition of Control Specific Binding, Mean
T5 construct: gene NR3C1

5-HT6 (h) = target: T6, 5-HT6 (h) (Homo sapiens, UniProt P50406); experiment: biochemical; parameters: Eurofins SafetyScreen44 radioligand displacement, inhibition of control specific binding; conditions: read-out: % Inhibition of Control Specific Binding, Mean
T6 construct: gene HTR6

β1(h) = target: T7, β1(h) (Homo sapiens, UniProt P08588); experiment: biochemical; parameters: Eurofins SafetyScreen44 radioligand displacement, inhibition of control specific binding; conditions: read-out: % Inhibition of Control Specific Binding, Mean
T7 construct: gene ADRB1

[1] = target: T8, Potassium Channel hERG (human) (Homo sapiens, UniProt Q12809); experiment: in vitro; parameters: Eurofins SafetyScreen44 radioligand displacement, inhibition of control specific binding; conditions: read-out: % Inhibition of Control Specific Binding, Mean
T8 construct: gene KCNH2

V1a(h) = target: T9, V1a(h) (Homo sapiens, UniProt P37288); experiment: biochemical; parameters: Eurofins SafetyScreen44 radioligand displacement, inhibition of control specific binding; conditions: read-out: % Inhibition of Control Specific Binding, Mean
T9 construct: gene AVPR1A

CB1(h) = target: T10, CB1(h) (Homo sapiens, UniProt P21554); experiment: biochemical; parameters: Eurofins SafetyScreen44 radioligand displacement, inhibition of control specific binding; conditions: read-out: % Inhibition of Control Specific Binding, Mean
T10 construct: gene CNR1

M1(h) = target: T11, M1(h) (Homo sapiens, UniProt P11229); experiment: biochemical; parameters: Eurofins SafetyScreen44 radioligand displacement, inhibition of control specific binding; conditions: read-out: % Inhibition of Control Specific Binding, Mean
T11 construct: gene CHRM1

μ (MOP) (h) = target: T12, μ (MOP) (h) (Homo sapiens, UniProt P35372); experiment: biochemical; parameters: Eurofins SafetyScreen44 radioligand displacement, inhibition of control specific binding; conditions: read-out: % Inhibition of Control Specific Binding, Mean
T12 construct: gene OPRM1

5-HT3(h) = target: T13, 5-HT3(h) (Homo sapiens, UniProt P46098); experiment: biochemical; parameters: Eurofins SafetyScreen44 radioligand displacement, inhibition of control specific binding; conditions: read-out: % Inhibition of Control Specific Binding, Mean
T13 construct: gene HTR3A

δ (DOP) (h) = target: T14, δ (DOP) (h) (Homo sapiens, UniProt P41143); experiment: biochemical; parameters: Eurofins SafetyScreen44 radioligand displacement, inhibition of control specific binding; conditions: read-out: % Inhibition of Control Specific Binding, Mean
T14 construct: gene OPRD1

M3(h) = target: T15, M3(h) (Homo sapiens, UniProt P20309); experiment: biochemical; parameters: Eurofins SafetyScreen44 radioligand displacement, inhibition of control specific binding; conditions: read-out: % Inhibition of Control Specific Binding, Mean
T15 construct: gene CHRM3

CCK1 (CCKA) (h) = target: T16, CCK1 (CCKA) (h) (Homo sapiens, UniProt P32238); experiment: biochemical; parameters: Eurofins SafetyScreen44 radioligand displacement, inhibition of control specific binding; conditions: read-out: % Inhibition of Control Specific Binding, Mean
T16 construct: gene CCKAR

M4(h) = target: T17, M4(h) (Homo sapiens, UniProt P08173); experiment: biochemical; parameters: Eurofins SafetyScreen44 radioligand displacement, inhibition of control specific binding; conditions: read-out: % Inhibition of Control Specific Binding, Mean
T17 construct: gene CHRM4

sigma 1 (h) = target: T18, sigma 1 (h) (Homo sapiens, UniProt Q99720); experiment: biochemical; parameters: Eurofins SafetyScreen44 radioligand displacement, inhibition of control specific binding; conditions: read-out: % Inhibition of Control Specific Binding, Mean
T18 construct: gene SIGMAR1

M5(h) = target: T19, M5(h) (Homo sapiens, UniProt P08912); experiment: biochemical; parameters: Eurofins SafetyScreen44 radioligand displacement, inhibition of control specific binding; conditions: read-out: % Inhibition of Control Specific Binding, Mean
T19 construct: gene CHRM5

N neuronal α4β2 (h) = target: T20, N neuronal α4β2 (h) (Homo sapiens, UniProt P17787+P43681); experiment: biochemical; parameters: Eurofins SafetyScreen44 radioligand displacement, inhibition of control specific binding; conditions: read-out: % Inhibition of Control Specific Binding, Mean
T20 construct: gene CHRNB2

5-HT7 (h) = target: T21, 5-HT7 (h) (Homo sapiens, UniProt P34969); experiment: biochemical; parameters: Eurofins SafetyScreen44 radioligand displacement, inhibition of control specific binding; conditions: read-out: % Inhibition of Control Specific Binding, Mean
T21 construct: gene HTR7

[2] = target: T22, norepinephrine transporter(h) (Homo sapiens, UniProt P23975); experiment: biochemical; parameters: Eurofins SafetyScreen44 radioligand displacement, inhibition of control specific binding; conditions: read-out: % Inhibition of Control Specific Binding, Mean
T22 construct: gene SLC6A2

acetylcholinesterase (h) = target: T23, acetylcholinesterase (h) (Homo sapiens, UniProt P22303); experiment: biochemical; parameters: Eurofins SafetyScreen44 enzyme assays, inhibition of control specific activity; conditions: read-out: % Inhibition of Control Values, Mean
T23 construct: gene ACHE

COX2(h) = target: T24, COX2(h) (Homo sapiens, UniProt P35354); experiment: biochemical; parameters: Eurofins SafetyScreen44 enzyme assays, inhibition of control specific activity; conditions: read-out: % Inhibition of Control Values, Mean
T24 construct: gene PTGS2

PDE4D2 (h) = target: T25, PDE4D2 (h) (Homo sapiens, UniProt Q08499); experiment: biochemical; parameters: Eurofins SafetyScreen44 enzyme assays, inhibition of control specific activity; conditions: read-out: % Inhibition of Control Values, Mean
T25 construct: gene PDE4D; isoform PDE4D2

5-HT2A(h) = target: T26, 5-HT2A(h) (Homo sapiens, UniProt P28223); experiment: biochemical; parameters: Eurofins SafetyScreen44 radioligand displacement, inhibition of control specific binding; conditions: read-out: % Inhibition of Control Specific Binding, Mean
T26 construct: gene HTR2A
T26 sequence (P28223 whole entry): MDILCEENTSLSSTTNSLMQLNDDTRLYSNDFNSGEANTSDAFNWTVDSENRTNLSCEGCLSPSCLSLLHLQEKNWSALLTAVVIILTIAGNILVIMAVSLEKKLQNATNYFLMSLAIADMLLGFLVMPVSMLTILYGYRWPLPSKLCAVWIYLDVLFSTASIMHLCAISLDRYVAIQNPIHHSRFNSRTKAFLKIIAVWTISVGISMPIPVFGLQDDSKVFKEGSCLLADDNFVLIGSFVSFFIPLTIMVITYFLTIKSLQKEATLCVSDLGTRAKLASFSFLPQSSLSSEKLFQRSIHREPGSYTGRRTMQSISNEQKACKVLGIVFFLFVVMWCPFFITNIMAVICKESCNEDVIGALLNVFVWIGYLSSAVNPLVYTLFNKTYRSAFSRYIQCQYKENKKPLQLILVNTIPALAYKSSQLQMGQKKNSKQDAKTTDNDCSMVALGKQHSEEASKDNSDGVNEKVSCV

T3 sequence (P41145 whole entry): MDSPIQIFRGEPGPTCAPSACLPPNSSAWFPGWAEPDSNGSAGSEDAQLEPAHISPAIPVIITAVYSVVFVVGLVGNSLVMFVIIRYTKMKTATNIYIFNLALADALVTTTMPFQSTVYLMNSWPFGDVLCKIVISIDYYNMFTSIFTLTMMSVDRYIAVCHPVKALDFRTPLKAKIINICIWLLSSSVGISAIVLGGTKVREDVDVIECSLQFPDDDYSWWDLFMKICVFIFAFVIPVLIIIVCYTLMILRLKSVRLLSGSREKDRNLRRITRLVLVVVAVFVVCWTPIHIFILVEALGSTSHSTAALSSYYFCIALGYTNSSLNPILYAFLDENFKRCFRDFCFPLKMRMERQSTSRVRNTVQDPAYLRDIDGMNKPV
T19 sequence (P08912 whole entry): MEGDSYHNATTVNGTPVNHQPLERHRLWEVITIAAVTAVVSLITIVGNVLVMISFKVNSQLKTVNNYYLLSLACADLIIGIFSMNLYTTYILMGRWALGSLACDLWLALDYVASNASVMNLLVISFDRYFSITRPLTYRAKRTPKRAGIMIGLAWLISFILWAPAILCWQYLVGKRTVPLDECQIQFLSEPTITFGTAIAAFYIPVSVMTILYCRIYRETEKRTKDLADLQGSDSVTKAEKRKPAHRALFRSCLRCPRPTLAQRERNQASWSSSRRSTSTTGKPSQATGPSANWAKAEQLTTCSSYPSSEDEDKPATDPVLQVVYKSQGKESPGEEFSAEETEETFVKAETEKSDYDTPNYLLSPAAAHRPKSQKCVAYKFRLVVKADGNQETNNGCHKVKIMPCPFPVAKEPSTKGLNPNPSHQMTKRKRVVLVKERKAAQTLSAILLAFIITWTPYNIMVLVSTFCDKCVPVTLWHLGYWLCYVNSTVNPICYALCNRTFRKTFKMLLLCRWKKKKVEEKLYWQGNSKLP
T2 sequence (P02708 whole entry): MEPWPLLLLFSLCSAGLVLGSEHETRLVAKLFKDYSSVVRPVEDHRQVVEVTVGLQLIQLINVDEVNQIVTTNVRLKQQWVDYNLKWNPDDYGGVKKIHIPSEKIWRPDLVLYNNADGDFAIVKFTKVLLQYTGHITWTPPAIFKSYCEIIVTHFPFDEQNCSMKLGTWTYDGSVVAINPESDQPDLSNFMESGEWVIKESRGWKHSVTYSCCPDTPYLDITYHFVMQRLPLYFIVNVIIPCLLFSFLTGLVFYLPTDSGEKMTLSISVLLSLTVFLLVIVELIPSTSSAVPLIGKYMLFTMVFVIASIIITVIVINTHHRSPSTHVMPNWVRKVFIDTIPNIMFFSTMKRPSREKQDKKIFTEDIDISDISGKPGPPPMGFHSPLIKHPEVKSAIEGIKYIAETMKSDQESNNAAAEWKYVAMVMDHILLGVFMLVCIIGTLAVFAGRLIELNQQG
T2 sequence (P11230 whole entry partner): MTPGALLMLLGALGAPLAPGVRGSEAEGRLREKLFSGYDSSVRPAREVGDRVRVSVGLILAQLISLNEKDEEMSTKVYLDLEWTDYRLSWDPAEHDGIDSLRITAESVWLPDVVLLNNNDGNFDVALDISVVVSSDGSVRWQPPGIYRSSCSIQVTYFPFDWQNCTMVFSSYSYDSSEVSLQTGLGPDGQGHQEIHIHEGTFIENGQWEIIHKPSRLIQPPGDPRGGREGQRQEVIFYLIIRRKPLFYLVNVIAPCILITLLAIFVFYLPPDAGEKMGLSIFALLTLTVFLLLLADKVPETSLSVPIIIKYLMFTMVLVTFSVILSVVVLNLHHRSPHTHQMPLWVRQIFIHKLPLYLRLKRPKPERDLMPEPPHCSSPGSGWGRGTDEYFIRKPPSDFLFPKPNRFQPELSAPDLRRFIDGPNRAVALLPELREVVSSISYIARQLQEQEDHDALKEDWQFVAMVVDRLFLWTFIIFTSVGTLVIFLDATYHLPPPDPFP
T2 sequence (Q07001 whole entry partner): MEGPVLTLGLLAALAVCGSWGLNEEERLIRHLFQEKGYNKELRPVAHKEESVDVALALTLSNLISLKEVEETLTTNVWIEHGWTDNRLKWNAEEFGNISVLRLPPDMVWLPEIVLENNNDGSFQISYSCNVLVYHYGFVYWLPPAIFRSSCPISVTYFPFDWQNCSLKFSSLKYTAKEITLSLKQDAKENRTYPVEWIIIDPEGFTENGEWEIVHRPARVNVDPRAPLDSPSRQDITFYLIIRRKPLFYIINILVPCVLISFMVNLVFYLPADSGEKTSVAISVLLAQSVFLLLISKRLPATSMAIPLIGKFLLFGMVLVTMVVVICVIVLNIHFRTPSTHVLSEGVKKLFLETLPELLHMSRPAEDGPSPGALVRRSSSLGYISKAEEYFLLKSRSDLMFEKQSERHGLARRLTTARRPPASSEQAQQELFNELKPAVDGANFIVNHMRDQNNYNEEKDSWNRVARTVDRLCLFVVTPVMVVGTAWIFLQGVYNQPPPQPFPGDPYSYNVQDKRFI
T4 sequence (P21918 whole entry): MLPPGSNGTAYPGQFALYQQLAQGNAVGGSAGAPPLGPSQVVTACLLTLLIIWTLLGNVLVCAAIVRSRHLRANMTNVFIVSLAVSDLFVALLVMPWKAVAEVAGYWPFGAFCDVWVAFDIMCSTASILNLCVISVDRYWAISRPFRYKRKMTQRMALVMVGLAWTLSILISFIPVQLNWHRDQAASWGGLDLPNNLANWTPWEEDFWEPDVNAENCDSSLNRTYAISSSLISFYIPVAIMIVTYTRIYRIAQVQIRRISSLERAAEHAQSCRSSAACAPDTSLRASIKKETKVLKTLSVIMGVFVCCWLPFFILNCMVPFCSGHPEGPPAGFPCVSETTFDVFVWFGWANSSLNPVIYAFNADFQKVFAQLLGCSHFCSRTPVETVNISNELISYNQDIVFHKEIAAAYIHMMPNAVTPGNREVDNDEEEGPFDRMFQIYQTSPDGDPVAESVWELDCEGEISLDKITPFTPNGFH
T20 sequence (P17787 whole entry): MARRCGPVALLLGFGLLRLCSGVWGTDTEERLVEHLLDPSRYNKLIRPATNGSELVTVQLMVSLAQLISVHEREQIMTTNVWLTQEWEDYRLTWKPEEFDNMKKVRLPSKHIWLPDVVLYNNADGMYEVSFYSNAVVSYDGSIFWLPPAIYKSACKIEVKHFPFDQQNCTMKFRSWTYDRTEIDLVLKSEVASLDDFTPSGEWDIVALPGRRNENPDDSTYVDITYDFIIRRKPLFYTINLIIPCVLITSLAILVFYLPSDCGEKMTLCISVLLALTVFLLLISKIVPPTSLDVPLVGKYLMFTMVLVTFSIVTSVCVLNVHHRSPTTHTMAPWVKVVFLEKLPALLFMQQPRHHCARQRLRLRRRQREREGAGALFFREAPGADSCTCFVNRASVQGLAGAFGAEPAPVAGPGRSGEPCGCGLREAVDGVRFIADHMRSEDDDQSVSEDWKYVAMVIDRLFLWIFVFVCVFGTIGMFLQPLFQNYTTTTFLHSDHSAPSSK
T20 sequence (P43681 whole entry): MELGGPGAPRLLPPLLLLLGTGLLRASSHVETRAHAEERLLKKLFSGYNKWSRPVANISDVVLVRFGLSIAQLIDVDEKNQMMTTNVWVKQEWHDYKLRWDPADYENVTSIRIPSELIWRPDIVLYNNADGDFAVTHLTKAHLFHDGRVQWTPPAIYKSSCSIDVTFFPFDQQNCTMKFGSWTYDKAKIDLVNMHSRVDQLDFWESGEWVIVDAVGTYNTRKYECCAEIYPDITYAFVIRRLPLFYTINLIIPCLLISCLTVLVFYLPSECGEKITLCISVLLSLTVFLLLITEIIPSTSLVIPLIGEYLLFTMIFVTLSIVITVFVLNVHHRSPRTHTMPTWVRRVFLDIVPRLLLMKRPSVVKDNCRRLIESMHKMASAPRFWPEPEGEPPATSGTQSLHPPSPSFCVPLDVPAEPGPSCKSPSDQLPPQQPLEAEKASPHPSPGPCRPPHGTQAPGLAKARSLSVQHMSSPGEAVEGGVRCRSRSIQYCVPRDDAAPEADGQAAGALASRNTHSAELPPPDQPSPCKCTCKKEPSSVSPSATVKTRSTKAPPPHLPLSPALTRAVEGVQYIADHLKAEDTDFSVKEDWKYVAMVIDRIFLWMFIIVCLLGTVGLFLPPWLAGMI
T6 sequence (P50406 whole entry): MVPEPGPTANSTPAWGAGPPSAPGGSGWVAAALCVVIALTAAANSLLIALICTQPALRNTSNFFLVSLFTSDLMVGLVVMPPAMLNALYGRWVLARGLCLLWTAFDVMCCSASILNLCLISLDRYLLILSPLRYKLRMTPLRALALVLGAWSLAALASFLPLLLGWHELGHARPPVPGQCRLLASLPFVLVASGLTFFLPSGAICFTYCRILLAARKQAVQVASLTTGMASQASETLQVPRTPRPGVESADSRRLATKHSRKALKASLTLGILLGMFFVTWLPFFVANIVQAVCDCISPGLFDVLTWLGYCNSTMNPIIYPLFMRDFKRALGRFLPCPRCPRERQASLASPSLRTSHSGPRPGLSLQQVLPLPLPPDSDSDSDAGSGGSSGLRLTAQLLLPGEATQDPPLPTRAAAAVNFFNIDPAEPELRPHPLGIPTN

**Q.** COCCN(CC1CCCN(Cc2ccccc2)C1)S(=O)(=O)c1ccc2ccccc2c1 (racemic) [compound 4, (±)N-((1-benzylpiperidin-3-yl)methyl)-N-(2-methoxyethyl)naphthalene-2-sulfonamide] was tested. Which inhibition at 10 µM (adrenergic receptor α2A) did it give?
**A.** 60.9%

**Q.** And the inhibition at 10 µM (N muscle-type (h))?
**A.** 23%

**Q.** What about the inhibition at 10 µM (kappa (h) (KOP)) of the same compound?
**A.** 26.1%

**Q.** And the inhibition at 10 µM (D5(h))?
**A.** 24.2%

**Q.** What about the inhibition at 10 µM (GR (h)) of the same compound?
**A.** 4.7%

**Q.** And the inhibition at 10 µM (5-HT6 (h))?
**A.** 87.1%

**Q.** And the inhibition at 10 µM (β1(h))?
**A.** 4.5%

**Q.** What about the inhibition at 10 µM [1] of the same compound?
**A.** 84.8%

**Q.** And the inhibition at 10 µM (V1a(h))?
**A.** 33.8%

**Q.** And the inhibition at 10 µM (CB1(h))?
**A.** -44.4%

**Q.** And the inhibition at 10 µM (M1(h))?
**A.** 53.1%

**Q.** And the inhibition at 10 µM (μ (MOP) (h))?
**A.** 82.7%

**Q.** And the inhibition at 10 µM (5-HT3(h))?
**A.** -2.7%

**Q.** And the inhibition at 10 µM (δ (DOP) (h))?
**A.** 32.8%

**Q.** What about the inhibition at 10 µM (M3(h)) of the same compound?
**A.** 35.2%

**Q.** And the inhibition at 10 µM (CCK1 (CCKA) (h))?
**A.** 21.9%

**Q.** What about the inhibition at 10 µM (M4(h)) of the same compound?
**A.** 63.2%

**Q.** And the inhibition at 10 µM (sigma 1 (h))?
**A.** 99.9%

**Q.** And the inhibition at 10 µM (M5(h))?
**A.** 17.6%

**Q.** And the inhibition at 10 µM (N neuronal α4β2 (h))?
**A.** -17.7%

**Q.** And the inhibition at 10 µM (5-HT7 (h))?
**A.** 84.3%

**Q.** What about the inhibition at 10 µM [2] of the same compound?
**A.** 34.1%

**Q.** What about the inhibition at 10 µM (acetylcholinesterase (h)) of the same compound?
**A.** 12.3%

**Q.** And the inhibition at 10 µM (COX2(h))?
**A.** 2.2%

**Q.** And the inhibition at 10 µM (PDE4D2 (h))?
**A.** -3.7%

**Q.** And the inhibition at 10 µM (5-HT2A(h))?
**A.** 93%
